From patent US7425640B2, “Substituted 5-carboxyamide pyrazoles and [1,2,4]triazoles as antiviral agents” (priority 2004, dated 2008)

Target: HCV RNA-dependent RNA polymerase NS5B (Δ21) (Hepatitis C virus genotype 1b, UniProt P26663)
Assay: Assay for HCV RNA-dependent RNA polymerase activity (SPA, [3H]-GTP incorporation)
Assay type: biochemical
Conditions: read-out: Δ21 Activity (IC50 μM); 50 nM NS5B (Δ21), class symbols
Outline: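 NS5B (Δ21), 50 nM, was incubated 3 h at room temperature with biotinylated oligoG12/polyC template, 5 μM GTP plus [3H]-GTP, in HEPES pH 7.3 with MgCl2 and NaCl. [3H]-GTP incorporation was read by streptavidin SPA. IC50 came from single experiments across 11 two-fold dilutions (0.05–50 μM).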

Sequence of HCV RNA-dependent RNA polymerase NS5B (Δ21) (P26663 2420-2989, stated change not applied): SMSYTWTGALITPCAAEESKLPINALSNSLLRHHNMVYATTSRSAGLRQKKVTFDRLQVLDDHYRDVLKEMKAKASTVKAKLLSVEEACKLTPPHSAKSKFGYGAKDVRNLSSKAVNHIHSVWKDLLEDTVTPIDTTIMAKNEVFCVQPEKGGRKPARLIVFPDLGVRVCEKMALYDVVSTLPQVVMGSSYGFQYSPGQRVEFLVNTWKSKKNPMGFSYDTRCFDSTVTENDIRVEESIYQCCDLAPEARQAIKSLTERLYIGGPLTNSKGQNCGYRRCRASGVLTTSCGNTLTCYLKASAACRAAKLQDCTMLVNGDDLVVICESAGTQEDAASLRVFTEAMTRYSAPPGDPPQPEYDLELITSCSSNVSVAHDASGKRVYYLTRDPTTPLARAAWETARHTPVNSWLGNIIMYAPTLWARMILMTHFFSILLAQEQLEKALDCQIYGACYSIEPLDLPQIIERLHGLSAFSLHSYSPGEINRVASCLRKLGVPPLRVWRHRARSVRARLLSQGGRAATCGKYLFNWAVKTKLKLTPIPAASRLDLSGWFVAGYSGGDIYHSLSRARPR

CC(C)C(=O)c1cc(C(=O)N[C@H]2CCCC[C@@H]2OCc2ccccc2)n(CC(=O)N[C@H]2CCCC[C@@H]2OCc2ccccc2)n1 [Compound 63]
IC50: 0.1 to 1 µM

O=C(Cn1nc(C(=O)O)cc1C(=O)N[C@H]1CCCC[C@@H]1OCc1ccccc1)Nc1ncccc1Oc1ccccc1 [Compound 160]
IC50: 0.1 to 1 µM
